Source: PMC11253858, “New melphalan derivatives for the treatment of retinoblastoma in combination with thermotherapy” (RSC Medicinal Chemistry, 2024)
Values joined by “and” are separate entries in the source; they are usually repeats but may differ in a detail not shown here. Equal values may be shown once. Read-outs that look alike come from different tables or passages of the source.

How the values were obtained:
[1] = system: Y79 human retinoblastoma cell line; assay: Presto blue cell viability assay in Y79 after 24 hours; format: cell-based; conditions: for IC50: Homo sapiens; for fold increase in cytotoxicity (lower IC50) compared to melphalan / cytotoxicity at the elevated temperature relative to 37 °C: Y79, 24 hours; for fold increase in cytotoxicity (lower IC50) compared to melphalan: 37 °C; for cytotoxicity at the elevated temperature relative to 37 °C: 42 °C for 1 hour vs 37 °C
Description: The IC50 values were determined using the presto blue cell viability assay (Table 1).
(§1) The human retina (RPE1) and retinoblastoma (Y79) cell lines were purchased from ATCC, Switzerland. RPMI 1640, DMEM high glucose Glutamax and DMEM GlutaMAX media were obtained from Life Technologies, and fetal bovine serum (FBS) was obtained from Sigma. Cell culture was performed in RPMI 1640 with 20% FBS and DMEM high glucose Glutamax with 10% FBS for Y79 and RPE1, respectively. Cell passage was performed twice per week using the appropriate medium and the resulting flaks were maintained in a bioincubator (Thermo Scientific, Switzerland) that controlled the humidity and fixed the CO2 rate to 5%. Cell viability tests were conducted in a flat bottomed 96 or 384 well plate using a compound stock solution prepared in dimethyl sulfoxide (DMSO) for all compounds except Cisplatin. The maximum concentration of DMSO in the wells was 0.1% DMSO.
2. Presto Blue cell viability assay in Y79 after 24 hours
The optimization of the starting concentration was carried out for each tested compound after 24 h of incubation. In order to conduct the tests at the mentioned time lapses, Y79’s work cell solutions were prepared at 10 6 cell/mL for the 24 h experiment. The same protocol as described below was used, however in this case, the experiment was conducted […]
3. Presto Blue cell viability assay in Y79 and RPE1 cells at 72 h […]
tests were conducted using cell work solutions at 4x10^5 and 7x10^5 cell/mL respectively and compound stock solutions were prepared at 10 µM in DMSO. The robotic System (Echo 550 […]
LIQUID HANDLER) charged the 384-cell plate with a decreasing volume of each compound’s SS in order to have a concentration gradient that covers 100 to 0.7 µM. DMSO was added to […]
added in the plate using a disperser (Thermo Scientific Multidrop Combi, Switzerland).
(§2) For thermal assays, the plates were placed in a heat chamber at 42 °C for 1 h and then transferred to a bioincubator at 37 °C for 71 h where the control plates were already placed. After 72 h of a total incubation time, […] of presto blue were added to each well and all the plates were incubated for 1 h at 37 °C. For presto blue cell viability assays, gambogic acid was used at 10 µM and represented the positive control, while DMSO at a final concentration of 0.1% presented the negative control. Fluorescence was measured using a […]
(§3) plate reader (Tecan […] F500 reader, Switzerland) at 560 nm for […] and 590 nm for fluorescence. The normalization of the fluorescence’s intensities was conducted with GraphPad software using Gambogic acid and DMSO as positive and negative control, […]

[2] = system: human retinoblastoma cells (Y79); assay: Presto Blue cell viability assay in Y79 cells at 72 h; format: cell-based
Description: (§4) The cytotoxicity of the two most promising derivatives, i.e.3d and 3e, was subsequently evaluated on human retinoblastoma (Y79) and healthy human retina (RPE1) immortalised cells after 72 hours of incubation in 2D settings under standard conditions, i.e. at 37 °C and 5% CO2, and also under conditions that mimic mild hyperthermia, i.e. at 42 °C for 1 hour followed by 71 hours at 37 °C, respectively, see Table 2.
as §1, with “DMSO. […]” for “DMSO.”
(§5) 3. Presto Blue cell viability assay in Y79 and RPE1 cells at 72 h
(§6) In order to evaluate the cytotoxicity of 3a-3f on Y79 and RPE1 cell lines, cell viability tests were conducted using cell work solutions at 4x10^5 and 7x10^5 cell/mL respectively and compound stock solutions were prepared at 10 µM in DMSO. The robotic System (Echo 550 […]
(§7) LIQUID HANDLER) charged the 384-cell plate with a decreasing volume of each compound’s SS in order to have a concentration gradient that covers 100 to 0.7 µM. DMSO was added to each well so as to have the same final volume of compound’s solution in each well. Cells were added in the plate using a disperser (Thermo Scientific Multidrop Combi, Switzerland).
as §2, §3

[3] = system: healthy human retina (RPE1) immortalised cells; assay: Presto Blue cell viability assay in RPE1 cells at 72 h; format: cell-based; conditions: for cytotoxicity to healthy RPE1 cells relative to tumoral Y79 cells (selectivity): 72 hours; for IC50: Homo sapiens, RPE-1
Description: as §4
as §1, with “DMSO. […]” for “DMSO.”
as §5, §6, §7, §2, §3

[4] = system: dsDNA oligonucleotide 5'-AGGCAG-3' (B1) / 3'-TCCGTC-5' (B2); assay: DNA binding ESI-MS study with model double stranded oligonucleotide; conditions: 37 °C, 48 hours incubation; for adduct formation with the dsDNA oligonucleotide (ESI-MS): 1 : 5 ratio
Description: The resulting solutions were measured by electrospray ionization mass spectrometry (ESI-MS) and the analysis of the spectra[45] is provided in the ESI ^† and summarised in Fig. 2a.
Furthermore, the relative amount of melphalan derivative-bound dsDNA follows the same trend as the toxicity of the compounds. […] The relative amount of these adducts decreases with the chain length, which could be a consequence of the higher hydrophobicity of the compounds and hint at a higher resistance to hydrolysis. […] No crosslinked DNA adducts, known to be relevant hallmarks in the melphalan mechanism of action, were detected, probably due to the difficulty to observe them upon ionization.[47]

[5] = system: myeloma RPMI 8226 cell line; design: method as in PMID 32161295; conditions: cited from earlier work
[6] = Y79, 1 hour at 42 °C followed by 23 hours at 37 °C, read-out: IC50 42 °C
[7] = Y79, 24 hours at 37 °C, 5% CO2, read-out: IC50 37 °C
[8] = Y79, 1 hour at 42 °C followed by 71 hours at 37 °C, read-out: Y79 IC50 42 °C
[9] = Y79, 72 hours at 37 °C, read-out: Y79 IC50 37 °C
[10] = RPE1, 1 hour at 42 °C followed by 71 hours at 37 °C, read-out: RPE1 IC50 42 °C
[11] = RPE1, 72 hours at 37 °C, read-out: RPE1 IC50 37 °C

## N[C@@H](Cc1ccc(N(CCCl)CCCl)cc1)C(=O)OCCC(F)(F)F [Compound 3a]
[1]; [6]
  IC50: 1.1 ± 0.1 µM
[1]; [7]
  IC50: 1.2 ± 0.1 µM

## N[C@@H](Cc1ccc(N(CCCl)CCCl)cc1)C(=O)OCCC(F)(F)C(F)(F)F [Compound 3b]
[1]; [6]
  IC50: 1.8 ± 0.1 µM
[1]; [7]
  IC50: 2.2 ± 0.1 µM

## N[C@@H](Cc1ccc(N(CCCl)CCCl)cc1)C(=O)OCCC(F)(F)C(F)(F)C(F)(F)C(F)(F)F [Compound 3c]
[1]; [6]
  IC50: 2.1 ± 0.2 µM
[1]; [7]
  IC50: 3.4 ± 0.2 µM

## Cl.N[C@@H](Cc1ccc(N(CCCl)CCCl)cc1)C(=O)OCCC(F)(F)C(F)(F)C(F)(F)C(F)(F)C(F)(F)C(F)(F)F [Compound 3d]
[1]; [6]
  IC50: 3.3 ± 0.2 µM
[1]; [7]
  IC50: 5.9 ± 0.3 µM
[1]
  fold increase in cytotoxicity (lower IC50) compared to melphalan: 5 to 10 fold and 10 fold
  cytotoxicity at the elevated temperature relative to 37 °C: approximately twice as cytotoxic
[2]; [8]
  IC50: 2.1 ± 0.2 µM
[2]; [9]
  IC50: 2.3 ± 0.1 µM
[3]
  cytotoxicity to healthy RPE1 cells relative to tumoral Y79 cells (selectivity): more than an order of magnitude less cytotoxic
[3]; [10]
  IC50: 31.5 ± 2.7 µM
[3]; [11]
  IC50: 39.3 ± 5 µM
[4]
  extent of ester cleavage in oligonucleotide adducts (ESI-MS): more significant

## Cl.N[C@@H](Cc1ccc(N(CCCl)CCCl)cc1)C(=O)OCCC(F)(F)C(F)(F)C(F)(F)C(F)(F)C(F)(F)C(F)(F)C(F)(F)C(F)(F)F [Compound 3e]
[1]; [6]
  IC50: 6.6 ± 0.4 µM
[1]; [7]
  IC50: 13 ± 0.4 µM
[1]
  fold increase in cytotoxicity (lower IC50) compared to melphalan: 5 to 10 fold and 5 fold
  cytotoxicity at the elevated temperature relative to 37 °C: approximately twice as cytotoxic
[2]; [8]
  IC50: 4.4 ± 0.3 µM
[2]; [9]
  IC50: 4.5 ± 0.1 µM
[3]
  cytotoxicity to healthy RPE1 cells relative to tumoral Y79 cells (selectivity): more than an order of magnitude less cytotoxic
[3]; [10]
  IC50: 42.3 ± 6 µM
[3]; [11]
  IC50: 52.8 ± 9.3 µM
[4]
  extent of ester cleavage in oligonucleotide adducts (ESI-MS): more significant

## Cl.N[C@@H](Cc1ccc(N(CCCl)CCCl)cc1)C(=O)OCCC(F)(F)C(F)(F)C(F)(F)C(F)(F)C(F)(F)C(F)(F)C(F)(F)C(F)(F)C(F)(F)C(F)(F)F [Compound 3f]
[1]; [6]
  IC50: 183 ± 20 µM
[1]; [7]
  IC50: > 200 µM
[4]
  adduct formation with the dsDNA oligonucleotide (ESI-MS): no adducts were observed

## N[C@@H](Cc1ccc(N(CCCl)CCCl)cc1)C(=O)O [Melphalan]
[1]; [6]
  IC50: 26 ± 2 µM
[1]; [7]
  IC50: 59 ± 5 µM
[4]
  adduct formation with the dsDNA oligonucleotide (ESI-MS): formed adducts with both strands of the oligonucleotides

## CCOC(=O)C(N)Cc1ccc(N(CCCl)CCCl)cc1 (stereo not shown) [ethyl ester derivative of melphalan]
[5]
  IC50: 1200 ± 300 nM
  fold increase in cytotoxicity compared to melphalan: 8 fold
